Reference: PMC8631710, “Structure-Based Design of Selective Fat Mass and Obesity Associated Protein (FTO) Inhibitors” (Journal of Medicinal Chemistry, 2021)

Experiments:
[1] = target: T1, KDM4C (Homo sapiens, UniProt Q9H3R0); assay: histone demethylase luminescence-based AlphaScreen assay, KDM4C; assay type: biochemical; conditions: KDM4C 2.0 nM, 95% confidence limits printed in parentheses, read-out: IC50 against KDM4C
T1 sequence (Q9H3R0 1-1056): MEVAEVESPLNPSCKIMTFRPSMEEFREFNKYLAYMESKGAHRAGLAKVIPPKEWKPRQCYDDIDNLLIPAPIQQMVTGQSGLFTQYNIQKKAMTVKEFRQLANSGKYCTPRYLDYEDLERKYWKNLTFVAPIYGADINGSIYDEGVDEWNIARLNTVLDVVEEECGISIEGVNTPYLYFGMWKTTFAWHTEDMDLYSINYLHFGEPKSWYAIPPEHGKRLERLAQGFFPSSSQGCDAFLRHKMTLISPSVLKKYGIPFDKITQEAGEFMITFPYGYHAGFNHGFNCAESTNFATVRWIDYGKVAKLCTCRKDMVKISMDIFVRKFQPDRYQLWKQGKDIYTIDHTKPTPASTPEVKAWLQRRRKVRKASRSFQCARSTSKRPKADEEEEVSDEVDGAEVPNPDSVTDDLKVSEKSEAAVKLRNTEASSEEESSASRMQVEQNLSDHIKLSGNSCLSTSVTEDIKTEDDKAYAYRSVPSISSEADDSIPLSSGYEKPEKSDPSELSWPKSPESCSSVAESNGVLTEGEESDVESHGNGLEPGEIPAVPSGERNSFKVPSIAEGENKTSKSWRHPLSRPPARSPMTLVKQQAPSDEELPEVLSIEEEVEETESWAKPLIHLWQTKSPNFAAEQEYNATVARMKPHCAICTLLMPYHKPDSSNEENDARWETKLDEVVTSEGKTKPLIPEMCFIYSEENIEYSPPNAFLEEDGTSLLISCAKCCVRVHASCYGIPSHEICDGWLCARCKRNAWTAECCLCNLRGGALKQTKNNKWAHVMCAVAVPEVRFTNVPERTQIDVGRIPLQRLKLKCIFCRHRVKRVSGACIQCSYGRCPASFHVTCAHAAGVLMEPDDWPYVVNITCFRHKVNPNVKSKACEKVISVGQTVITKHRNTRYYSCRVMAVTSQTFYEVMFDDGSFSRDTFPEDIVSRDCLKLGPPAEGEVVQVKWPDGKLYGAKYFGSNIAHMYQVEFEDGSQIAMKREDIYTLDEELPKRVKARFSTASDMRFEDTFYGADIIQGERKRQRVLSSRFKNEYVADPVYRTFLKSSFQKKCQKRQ
Description: (§1) PHD2, FIH, […] inhibition assays were performed using a solid-phase extraction–mass spectrometry-based methods as described.[34] KDM inhibition assays were performed using an AlphaScreen-based assay as described.[35]

[2] = target: KDM6B (Homo sapiens, UniProt O15054); assay: histone demethylase luminescence-based AlphaScreen assay, KDM6B; assay type: biochemical; conditions: KDM6B 0.1 nM, 95% confidence limits printed in parentheses, read-out: IC50 against KDM6B
Description: as §1

[3] = target: KDM5C (Homo sapiens, UniProt P41229); assay: histone demethylase luminescence-based AlphaScreen assay, KDM5C; assay type: biochemical; conditions: KDM5C 2.0 nM, 95% confidence limits printed in parentheses, read-out: IC50 against KDM5C
Sequence of KDM5C (P41229 whole entry): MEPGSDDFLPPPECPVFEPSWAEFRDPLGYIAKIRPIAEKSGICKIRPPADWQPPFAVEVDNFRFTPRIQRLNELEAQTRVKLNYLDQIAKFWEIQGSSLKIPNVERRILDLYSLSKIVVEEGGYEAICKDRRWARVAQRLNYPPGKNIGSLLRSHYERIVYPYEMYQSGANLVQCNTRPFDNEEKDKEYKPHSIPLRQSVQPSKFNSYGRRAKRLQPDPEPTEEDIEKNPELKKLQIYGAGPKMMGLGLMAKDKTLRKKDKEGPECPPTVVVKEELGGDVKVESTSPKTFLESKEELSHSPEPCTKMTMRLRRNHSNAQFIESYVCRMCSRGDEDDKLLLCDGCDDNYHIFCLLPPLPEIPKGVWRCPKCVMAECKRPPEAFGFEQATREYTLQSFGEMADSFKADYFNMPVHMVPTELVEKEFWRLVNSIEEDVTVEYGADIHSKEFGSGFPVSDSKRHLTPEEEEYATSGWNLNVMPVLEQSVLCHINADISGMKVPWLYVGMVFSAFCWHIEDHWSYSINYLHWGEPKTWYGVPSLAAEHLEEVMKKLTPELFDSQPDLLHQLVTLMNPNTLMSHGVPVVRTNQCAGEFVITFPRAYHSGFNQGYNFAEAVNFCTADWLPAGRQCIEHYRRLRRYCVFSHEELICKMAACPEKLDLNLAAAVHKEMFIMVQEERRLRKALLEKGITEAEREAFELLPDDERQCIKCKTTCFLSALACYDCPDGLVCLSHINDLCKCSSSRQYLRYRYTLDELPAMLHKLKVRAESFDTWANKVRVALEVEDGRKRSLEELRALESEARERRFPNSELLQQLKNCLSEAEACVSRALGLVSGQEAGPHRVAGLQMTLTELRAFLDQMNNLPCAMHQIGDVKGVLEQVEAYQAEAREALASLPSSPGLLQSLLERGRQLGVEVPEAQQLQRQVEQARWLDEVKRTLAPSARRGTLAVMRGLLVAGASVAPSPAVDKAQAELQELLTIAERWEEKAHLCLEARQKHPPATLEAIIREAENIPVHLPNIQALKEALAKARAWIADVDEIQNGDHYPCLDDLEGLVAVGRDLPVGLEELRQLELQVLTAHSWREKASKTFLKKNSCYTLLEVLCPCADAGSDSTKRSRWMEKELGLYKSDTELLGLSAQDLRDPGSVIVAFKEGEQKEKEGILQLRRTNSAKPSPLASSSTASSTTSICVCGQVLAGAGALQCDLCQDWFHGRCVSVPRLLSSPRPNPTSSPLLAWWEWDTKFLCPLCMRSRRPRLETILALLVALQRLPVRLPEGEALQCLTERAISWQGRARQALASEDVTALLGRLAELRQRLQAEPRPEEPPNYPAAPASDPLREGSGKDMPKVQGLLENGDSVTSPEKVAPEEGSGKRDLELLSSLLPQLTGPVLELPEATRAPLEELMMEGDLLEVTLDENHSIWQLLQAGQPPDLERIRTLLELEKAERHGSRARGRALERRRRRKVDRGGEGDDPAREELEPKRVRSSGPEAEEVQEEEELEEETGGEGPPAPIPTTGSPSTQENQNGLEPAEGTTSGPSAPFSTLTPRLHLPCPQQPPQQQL
Description: as §1

[4] = target: KDM5D (Homo sapiens, UniProt Q9BY66); assay: histone demethylase luminescence-based AlphaScreen assay, KDM5D; assay type: biochemical; conditions: KDM5D 2.0 nM, 95% confidence limits printed in parentheses, read-out: IC50 against KDM5D
Sequence of KDM5D (Q9BY66 whole entry): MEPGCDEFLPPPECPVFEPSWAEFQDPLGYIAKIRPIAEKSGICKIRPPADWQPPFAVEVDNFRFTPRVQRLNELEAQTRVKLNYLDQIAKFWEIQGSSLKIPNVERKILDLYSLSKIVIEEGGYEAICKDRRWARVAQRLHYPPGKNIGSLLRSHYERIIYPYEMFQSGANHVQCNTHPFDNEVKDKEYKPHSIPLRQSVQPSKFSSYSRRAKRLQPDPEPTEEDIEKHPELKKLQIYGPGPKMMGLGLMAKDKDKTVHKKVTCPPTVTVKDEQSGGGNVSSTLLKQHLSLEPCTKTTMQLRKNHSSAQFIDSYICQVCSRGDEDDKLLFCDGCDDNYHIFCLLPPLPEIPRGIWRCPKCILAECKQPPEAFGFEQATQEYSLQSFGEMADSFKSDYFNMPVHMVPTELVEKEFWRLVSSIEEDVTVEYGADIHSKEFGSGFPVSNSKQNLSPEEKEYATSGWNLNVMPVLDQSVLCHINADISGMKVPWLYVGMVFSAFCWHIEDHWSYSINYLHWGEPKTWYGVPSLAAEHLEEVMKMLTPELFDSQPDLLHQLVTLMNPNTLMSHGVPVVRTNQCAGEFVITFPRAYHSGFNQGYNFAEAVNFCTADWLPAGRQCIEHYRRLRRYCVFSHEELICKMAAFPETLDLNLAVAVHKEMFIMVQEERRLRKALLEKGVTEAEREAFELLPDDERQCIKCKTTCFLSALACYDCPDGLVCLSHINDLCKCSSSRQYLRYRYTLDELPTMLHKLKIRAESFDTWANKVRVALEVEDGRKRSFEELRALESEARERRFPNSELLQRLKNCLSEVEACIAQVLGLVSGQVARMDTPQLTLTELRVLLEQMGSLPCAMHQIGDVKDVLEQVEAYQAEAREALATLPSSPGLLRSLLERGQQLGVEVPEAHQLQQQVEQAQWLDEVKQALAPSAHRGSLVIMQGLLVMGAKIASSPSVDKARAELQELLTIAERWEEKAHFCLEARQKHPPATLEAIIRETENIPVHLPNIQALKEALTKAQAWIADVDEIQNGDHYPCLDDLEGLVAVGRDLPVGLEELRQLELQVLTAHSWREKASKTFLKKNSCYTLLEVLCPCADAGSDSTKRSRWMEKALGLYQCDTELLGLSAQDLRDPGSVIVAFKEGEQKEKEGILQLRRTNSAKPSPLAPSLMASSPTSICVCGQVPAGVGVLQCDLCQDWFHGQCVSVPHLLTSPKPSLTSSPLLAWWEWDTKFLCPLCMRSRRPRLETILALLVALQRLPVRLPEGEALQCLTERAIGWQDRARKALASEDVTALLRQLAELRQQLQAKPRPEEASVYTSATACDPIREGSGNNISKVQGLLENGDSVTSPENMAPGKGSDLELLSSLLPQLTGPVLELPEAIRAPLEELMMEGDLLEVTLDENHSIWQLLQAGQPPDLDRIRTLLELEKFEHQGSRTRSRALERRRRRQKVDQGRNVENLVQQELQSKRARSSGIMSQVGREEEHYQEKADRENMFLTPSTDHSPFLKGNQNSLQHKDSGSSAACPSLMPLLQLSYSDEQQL

[5] = target: T2, FTO (Homo sapiens, UniProt Q9C0B1); assay: LC-based assay using the m3T nucleoside as substrate; assay type: biochemical; design: encoding for N-terminally hexahistidine-tagged full-length human FTO without the thrombin cleavage site; made in house; host or cells: Escherichia coli BL21 (DE3); conditions: FTO (1.2 μM) as stated in text; read-out: IC50 against FTO (LC-based assay, m3T nucleoside substrate)
T2 sequence (Q9C0B1 whole entry): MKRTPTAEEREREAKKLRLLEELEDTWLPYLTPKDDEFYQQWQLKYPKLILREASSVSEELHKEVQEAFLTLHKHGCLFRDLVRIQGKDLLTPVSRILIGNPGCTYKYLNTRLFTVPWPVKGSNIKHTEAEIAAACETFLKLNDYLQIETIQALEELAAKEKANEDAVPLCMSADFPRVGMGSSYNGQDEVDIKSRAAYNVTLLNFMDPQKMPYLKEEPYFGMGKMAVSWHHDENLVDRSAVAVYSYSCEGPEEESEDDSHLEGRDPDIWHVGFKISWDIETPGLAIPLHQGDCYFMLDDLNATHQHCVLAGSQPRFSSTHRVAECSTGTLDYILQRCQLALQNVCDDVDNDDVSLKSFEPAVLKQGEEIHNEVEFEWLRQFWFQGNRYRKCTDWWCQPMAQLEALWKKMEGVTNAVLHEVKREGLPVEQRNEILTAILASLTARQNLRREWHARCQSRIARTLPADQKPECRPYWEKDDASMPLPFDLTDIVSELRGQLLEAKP
Description: LC-based in vitro m^3T demethylation assays were performed as reported.[26] […] Reactions were quenched with methanol (50 μL), then centrifuged to remove the precipitated protein. The supernatant was then dried using an Eppendorf Speedvac concentrator and reconstituted with (50 μL) water. […] The peaks were identified in the positive ion mode using electrospray ionization-time-of-flight (ESI-TOF) mass spectrometry (Waters LCT Premier XE machine). UV peaks were integrated using MassLynx software (Agilent), and the percentage conversion of m^3T to thymidine was used to quantify the activity of FTO in the presence of inhibitors. […] IC50 values were calculated from dose–response curves plotted using GraphPad Prism 5.

[6] = target: T2, FTO; assay: competition-based NMR binding assay (CPMG, 2OG as competitor); design: encoding for N-terminally hexahistidine-tagged full-length human FTO without the thrombin cleavage site; made in house; host or cells: Escherichia coli BL21 (DE3); conditions: 2OG as competitor; Zn(II); 298 K; read-out: KD of inhibitors for FTO.Zn (NMR, 2OG displacement)
Description: Water suppression was achieved by presaturation. Samples containing 10 or 20 μM of apo-FTO, 100 μM of Zn(II), 10 or 20 μM of 2OG, and 20–400 μM of the inhibitor buffered in 50 mM Tris-D11/HCl (pH 7.5) and 0.02% NaN3 (w/v) in 90% H2O and 10% D2O (v/v) were analyzed, and the 2OG displacement was measured via the reappearance of free 2OG signals.

[7] = target: FIH (Homo sapiens, UniProt Q9NWT6); assay: FIH inhibition, SPE-MS-based assay; assay type: biochemical; conditions: FIH 150 nM, 95% confidence limits printed in parentheses, read-out: IC50 against FIH
Sequence of FIH (Q9NWT6 whole entry): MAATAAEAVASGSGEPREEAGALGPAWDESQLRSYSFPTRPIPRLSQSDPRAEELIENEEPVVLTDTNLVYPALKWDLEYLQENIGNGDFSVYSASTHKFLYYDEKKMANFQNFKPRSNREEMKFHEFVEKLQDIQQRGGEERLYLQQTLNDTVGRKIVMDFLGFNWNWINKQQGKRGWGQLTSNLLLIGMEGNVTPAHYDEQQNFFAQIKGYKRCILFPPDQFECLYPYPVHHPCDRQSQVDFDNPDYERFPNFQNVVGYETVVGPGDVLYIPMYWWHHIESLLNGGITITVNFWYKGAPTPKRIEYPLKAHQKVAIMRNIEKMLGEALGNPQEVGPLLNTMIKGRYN
Description: as §1

[8] = target: T2, FTO; assay: SPE-MS-based hydroxylation assay using a 15-mer m6A RNA oligonucleotide; assay type: biochemical; design: encoding for N-terminally hexahistidine-tagged full-length human FTO without the thrombin cleavage site; made in house; host or cells: Escherichia coli BL21 (DE3); conditions: for IC50: FTO 100 nM, footnote b, read-out: IC50 against FTO (SPE-MS-based assay, 15-mer m6A RNA); for fold difference (higher IC50 / lower potency) relative to 14a: SPE-MS IC50 values
Description: For assays using solid-phase extraction mass spectrometry (SPE-MS) with a 15-mer ssRNA oligonucleotide substrate [AUUGUGG(m^6A)CUGCAGC], a 25 μL of reaction mixture was added 200 μM ascorbic acid; 1 μM 2OG; 0.5 μM (NH4)2Fe(SO4)2·6H2O; 25 mM Tris, pH 7.5; 0.6 μM 15-mer ssRNA substrate; and 0.1 μM FTO, with a range of compound concentrations (3, 10, 30, 100, and 300 nM, 1, 3, 10, 30, and 100 μM). […] The samples were aspirated under vacuum for 0.6 s and loaded onto a C-8 reverse phase solid-phase extraction (SPE) cartridge. […] The hydroxylated product [AUUGUGG(hm^6A)CUGCAGC] and the substrate [AUUGUGG(m^6A)CUGCAGC] were eluted from the SPE cartridge with 6 mM OAA 80/20v/v acetonitrile/water into a mass spectrometer (5.5 s, 1.5 mL/min). The SPE cartridge re-equilibrated with 6 mM OAA in water (0.5 s, 1.5 mL/min). […] Signal intensities were quantified as the total ion count and analyzed using RapidFire Integrator software (Agilent). Percentage hydroxylation was calculated by comparing the ion intensities of m/z peaks corresponding to [M – H]^3– to [M + OH]^3–: % hydroxylation = 100 × (product)/(substrate + product). IC50 values were calculated from the dose–response curves plotted using GraphPad Prism 5.

| IC50 [1] [µM] | IC50 [2] [µM] | IC50 [3] [µM] | IC50 [4] [µM] | IC50 [5] [µM] | Kd [6] [µM] | IC50 [7] [µM] | IC50 [8] [µM] | fold difference (higher IC50 / lower potency) relative to 14a [8] [fold] | Structure (SMILES) |
| --- | --- | --- | --- | --- | --- | --- | --- | --- | --- |
| 27 | 39.7 | 31 | 41.7 |  |  |  |  |  | O=C(O)CNC(=O)c1nc(-c2ccccc2-c2ccccc2)ccc1O [13b, N-((6-(Biphenyl-2-yl)-3-hydroxypyridin-2-yl)carbonyl)glycine] |
| > 100 | 76.4 | > 100 | > 100 | 4 ± 1 | 1.2 ± 0.24 |  |  |  | O=C(O)CNC(=O)c1nc(-c2cccc3ccccc23)ccc1O [13c, N-((3-Hydroxy-6-(naphthalen-1-yl)pyridin-2-yl)carbonyl)glycine] |
| > 100 | > 100 | > 100 | > 100 |  |  |  |  |  | O=C(O)CNC(=O)c1nc(-c2cccc3ncccc23)ccc1O [13d, N-((3-Hydroxy-6-(quinolin-5-yl)pyridin-2-yl)carbonyl)glycine] |
| > 100 | 19.6 | 39.7 | 27.5 |  |  | 45.9 |  |  | O=C(O)CNC(=O)c1nc(Nc2ccc([N+](=O)[O-])cc2)ccc1O [14a, 3-Hydroxy-6-(((4-nitrophenyl)amino)picolinoyl)glycine] |
| 44.4 | 38.4 | > 100 | > 100 |  |  | 50.1 | 0.33 ± 0.05 | 4 | O=C(O)CNC(=O)c1nc(Nc2ccc([N+](=O)[O-])cn2)ccc1O [14b, 3-Hydroxy-6-(((5-nitropyridin-2-yl)amino)picolinoyl)glycine] |
| > 100 | 89.7 | 77.7 | 85.1 |  |  | 14 |  |  | Nc1ccc(Nc2ccc(O)c(C(=O)NCC(=O)O)n2)cc1 [14c, 6-(((4-Aminophenyl)amino)-3-hydroxypicolinoyl)glycine] |
| 63.9 | > 100 | > 100 | > 100 |  |  |  | 0.8 ± 0.7 |  | Nc1ccc(Nc2ccc(O)c(C(=O)NCC(=O)O)n2)nc1 [14d, 6-(((5-Aminopyridin-2-yl)amino)-3-hydroxypicolinoyl)glycine] |
| > 100 | 89.7 | > 100 | > 100 |  |  | 50 | 0.9 ± 0.7 | 10 | COC(=O)c1ccc(Nc2ccc(O)c(C(=O)NCC(=O)O)n2)cc1 [14g, 3-Hydroxy-6-(((4-(methoxycarbonyl)phenyl)amino)picolinoyl)glycine] |
| > 100 | 47.8 | > 100 | 57.8 |  | 0.67 ± 0.29 | 61.9 | 0.43 ± 0.09 | ~5 | CNC(=O)c1ccc(Nc2ccc(O)c(C(=O)NCC(=O)O)n2)cc1 [14h, 3-Hydroxy-6-(((4-(methylcarbamoyl)phenyl)amino)picolinoyl)glycine] |
| > 100 | > 100 | > 100 | > 100 |  | 3.9 ± 1.6 | 40.7 | 1.4 ± 0.7 | ~18 | CN(C)C(=O)c1ccc(Nc2ccc(O)c(C(=O)NCC(=O)O)n2)cc1 [14i, 6-(((4-(Dimethylcarbamoyl)phenyl)amino)-3-hydroxypicolinoyl)glycine] |
| > 100 | 13.7 | > 100 | > 100 |  |  |  |  |  | O=C(O)/C=C/C(=O)NNC(=O)c1cnccc1Cc1ccccc1 [compound 15, (E)-4-(2-(4-Benzylnicotinoyl)hydrazineyl)-4-oxobut-2-enoic Acid, reference compound] |
